Columns and labels:
Test in all cases: Glasshouse herbicide test, pre- and post-emergence
Format in all cases: in vivo
[1] = tested on: Echinochloa crus-galli (ECHCG); settings: 250 g/h, evaluated after 13 days, five-point scale; for percentage damage caused to the plant, ECHCG POST: post-emergence; for percentage damage caused to the plant, ECHCG PRE: pre-emergence
Experimental: (§1) Seeds of a variety of test species are sown in standard soil in pots (Lolium perenne (LOLPE), Setaria faberi (SETFA), Alopecurus myosuroides (ALOMY), Echinochloa crus-galli (ECHCG), Avena fatua (AVEFA)). After cultivation for one day (pre-emergence) or after 8 days cultivation (post-emergence) under controlled conditions in a glasshouse (at 24/16° C., day/night; 14 hours light; 65% humidity), the plants are sprayed with an aqueous spray solution derived from the formulation of the technical active ingredient in acetone/water (50:50) solution containing 0.5% Tween 20 (polyoxyethelyene sorbitan monolaurate, CAS RN 9005-64-5). Compounds are applied at 250 g/h. The test plants are then grown in a glasshouse under controlled conditions in a glasshouse (at 24/16° C., day/night; 14 hours light; 65% humidity) and watered twice daily. After 13 days for pre and post-emergence, the test is evaluated for the percentage damage caused to the plant. The biological activities are shown in the following table on a five-point scale (5=80-100%; 4=60-79%; 3=40-59%; 2=20-39%; 1=0-19%).

[2] = tested on: Alopecurus myosuroides (ALOMY); settings: 250 g/h, evaluated after 13 days, five-point scale; for percentage damage caused to the plant, ALOMY POST: post-emergence; for percentage damage caused to the plant, ALOMY PRE: pre-emergence
Experimental: as §1

Setaria faberi (SETFA) = settings: 250 g/h, evaluated after 13 days, five-point scale; for percentage damage caused to the plant, SETFA POST: post-emergence; for percentage damage caused to the plant, SETFA PRE: pre-emergence
Experimental: as §1

Avena fatua (AVEFA) = settings: 250 g/h, evaluated after 13 days, five-point scale; for percentage damage caused to the plant, AVEFA POST: post-emergence; for percentage damage caused to the plant, AVEFA PRE: pre-emergence
Experimental: as §1

Lolium perenne (LOLPE) = settings: 250 g/h, evaluated after 13 days, five-point scale; for percentage damage caused to the plant, LOLPE POST: post-emergence; for percentage damage caused to the plant, LOLPE PRE: pre-emergence
Experimental: as §1

Structure (SMILES)	percentage damage caused to the plant, ECHCG POST [1]	percentage damage caused to the plant, ECHCG PRE [1]	percentage damage caused to the plant, ALOMY POST [2]	percentage damage caused to the plant, ALOMY PRE [2]	percentage damage caused to the plant, SETFA POST (Setaria faberi (SETFA))	percentage damage caused to the plant, SETFA PRE (Setaria faberi (SETFA))	percentage damage caused to the plant, AVEFA POST (Avena fatua (AVEFA))	percentage damage caused to the plant, AVEFA PRE (Avena fatua (AVEFA))	percentage damage caused to the plant, LOLPE POST (Lolium perenne (LOLPE))	percentage damage caused to the plant, LOLPE PRE (Lolium perenne (LOLPE))
CC#Cc1cc(C)c(C2C(=O)CC3(CCC(NC(C)=O)CC3)CC2=O)c(C)c1 (centres unmarked) [Compound 2.001, N-[3-(2,6-dimethyl-4-prop-1-ynyl-phenyl)-2,4-dioxo-spiro[5.5]undecan-9-yl]acetamide]	5 (5=80-100%)	5 (5=80-100%)	5 (5=80-100%)	5 (5=80-100%)	5 (5=80-100%)	5 (5=80-100%)	5 (5=80-100%)	5 (5=80-100%)	5 (5=80-100%)	5 (5=80-100%)
CC#Cc1cc(C)c(C2C(=O)CC3(CCC(NC(C)=O)CC3)CC2=O)c(OC)c1 (centres unmarked) [Compound 2.003]	5 (5=80-100%)	5 (5=80-100%)	5 (5=80-100%)	5 (5=80-100%)	5 (5=80-100%)	5 (5=80-100%)	5 (5=80-100%)	5 (5=80-100%)	5 (5=80-100%)	5 (5=80-100%)
CC#Cc1cc(C)c(C2C(=O)CC3(CCC(NC(=O)C4CC4)CC3)CC2=O)c(C)c1 (centres unmarked) [Compound 2.004]	5 (5=80-100%)	5 (5=80-100%)	5 (5=80-100%)	5 (5=80-100%)	5 (5=80-100%)	5 (5=80-100%)	5 (5=80-100%)	5 (5=80-100%)	5 (5=80-100%)	5 (5=80-100%)
CC#Cc1cc(C)c(C2C(=O)CC3(CCC(NC(=O)C(C)(C)C)CC3)CC2=O)c(C)c1 (centres unmarked) [Compound 2.005]	5 (5=80-100%)	5 (5=80-100%)	5 (5=80-100%)	5 (5=80-100%)	5 (5=80-100%)	5 (5=80-100%)	5 (5=80-100%)	5 (5=80-100%)	5 (5=80-100%)	5 (5=80-100%)
CC#Cc1cc(C)c(C2C(=O)CC3(CCC(NC(=O)c4ccccn4)CC3)CC2=O)c(C)c1 (centres unmarked) [Compound 2.006]	5 (5=80-100%)	5 (5=80-100%)	5 (5=80-100%)	5 (5=80-100%)	5 (5=80-100%)	5 (5=80-100%)	5 (5=80-100%)	4 (4=60-79%)	5 (5=80-100%)	5 (5=80-100%)
CC#Cc1cc(C)c(C2C(=O)CC3(CCC(NC(=O)C(=O)NC)CC3)CC2=O)c(C)c1 (centres unmarked) [Compound 2.007]	5 (5=80-100%)	5 (5=80-100%)	5 (5=80-100%)	5 (5=80-100%)	5 (5=80-100%)	5 (5=80-100%)	5 (5=80-100%)	5 (5=80-100%)	5 (5=80-100%)	5 (5=80-100%)
CC#Cc1cc(C)c(C2C(=O)CC3(CCC(NC(=O)COC(F)F)CC3)CC2=O)c(C)c1 (centres unmarked) [Compound 2.008]	5 (5=80-100%)	5 (5=80-100%)	5 (5=80-100%)	5 (5=80-100%)	5 (5=80-100%)	5 (5=80-100%)	5 (5=80-100%)	5 (5=80-100%)	5 (5=80-100%)	5 (5=80-100%)
CC#Cc1cc(C)c(C2C(=O)CC3(CCC(NC(=O)C4COCCO4)CC3)CC2=O)c(C)c1 (centres unmarked) [Compound 2.009]	5 (5=80-100%)	5 (5=80-100%)	4 (4=60-79%)	4 (4=60-79%)	5 (5=80-100%)	5 (5=80-100%)	5 (5=80-100%)	4 (4=60-79%)	5 (5=80-100%)	5 (5=80-100%)
CC#Cc1cc(C)c(C2C(=O)CC3(CCC(NC(=O)CC#N)CC3)CC2=O)c(C)c1 (centres unmarked) [Compound 2.010]	5 (5=80-100%)	5 (5=80-100%)	5 (5=80-100%)	5 (5=80-100%)	5 (5=80-100%)	5 (5=80-100%)	5 (5=80-100%)	5 (5=80-100%)	5 (5=80-100%)	5 (5=80-100%)
CC#Cc1cc(C)c(C2C(=O)CC3(CCC(NC(=O)C(F)F)CC3)CC2=O)c(C)c1 (centres unmarked) [Compound 2.011]	5 (5=80-100%)	5 (5=80-100%)	5 (5=80-100%)	5 (5=80-100%)	5 (5=80-100%)	5 (5=80-100%)	5 (5=80-100%)	5 (5=80-100%)	5 (5=80-100%)	5 (5=80-100%)
CC#Cc1cc(C)c(C2C(=O)CC3(CCC(NC(=O)Nc4ccccn4)CC3)CC2=O)c(C)c1 (centres unmarked) [Compound 2.012]	4 (4=60-79%)	4 (4=60-79%)	4 (4=60-79%)	4 (4=60-79%)	4 (4=60-79%)	4 (4=60-79%)	5 (5=80-100%)	3 (3=40-59%)	5 (5=80-100%)	5 (5=80-100%)

Reference: patent US12319640B2, “Cyclic diones as herbicidal compounds” (SYNGENTA CROP PROTECTION AG, priority 2019, dated 2025)
